{"source": "paper PMC6211316", "about": "“Synthesis and biological evaluation of 3-arylcoumarin derivatives as potential anti-diabetic agents” (Journal of Enzyme Inhibition and Medicinal Chemistry, 2018)", "key": {"[1]": {"assay": "DPPH free radical scavenging", "conditions": "mean ± SD (n = 3)", "summary_of_the_method": "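Sample solutions at various concentrations mixed 1:1 with DPPH (0.04 mg/mL) and reacted 30 min at room temperature; absorbance read at 517 nm against ethanol blank, corrected for sample absorbance. Scavenging % calculated versus DPPH alone, triplicate measurements, IC50 derived.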"}, "[2]": {"biological_target": "T1, α-Glucosidase (Saccharomyces cerevisiae, UniProt P53341)", "T1 construct": "purchased Sigma Aldrich G0660-750UN", "T1 sequence (P53341 whole entry)": "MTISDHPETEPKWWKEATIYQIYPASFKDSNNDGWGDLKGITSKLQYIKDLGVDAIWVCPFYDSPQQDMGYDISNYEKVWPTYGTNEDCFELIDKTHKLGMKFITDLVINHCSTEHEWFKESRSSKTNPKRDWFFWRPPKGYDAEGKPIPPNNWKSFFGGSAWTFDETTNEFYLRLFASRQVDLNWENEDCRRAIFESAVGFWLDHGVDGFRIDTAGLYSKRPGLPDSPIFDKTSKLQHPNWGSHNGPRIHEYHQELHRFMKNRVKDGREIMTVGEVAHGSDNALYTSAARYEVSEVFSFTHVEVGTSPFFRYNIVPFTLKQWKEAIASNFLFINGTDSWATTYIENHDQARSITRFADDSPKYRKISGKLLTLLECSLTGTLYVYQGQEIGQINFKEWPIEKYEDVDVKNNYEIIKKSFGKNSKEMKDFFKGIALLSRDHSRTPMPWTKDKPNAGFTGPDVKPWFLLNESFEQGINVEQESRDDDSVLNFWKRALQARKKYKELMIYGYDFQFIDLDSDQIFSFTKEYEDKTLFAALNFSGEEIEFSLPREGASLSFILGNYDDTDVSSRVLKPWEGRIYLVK", "assay": "biochemical", "type": "biochemical", "summary_of_the_method": "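Yeast α-glucosidase and PNPG substrate in 100 mM phosphate buffer, pH 6.8, with DMSO-dissolved compounds were preincubated 10 min at 37 °C, then reacted 20 min at 37 °C after enzyme addition. Na2CO3 stopped the reaction; p-nitrophenol was read at 405 nm. Blank-corrected % inhibition and IC50 came from triplicates.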"}, "[3]": {"system": "AGEs formation", "assay": "In vitro inhibitory activity of AGEs formation (bovine serum albumin/glucose)", "type": "biochemical", "conditions": "mean ± SD (n = 3)", "summary_of_the_method": "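Bovine serum albumin (10 mg/mL) with 0.2 M glucose in 50 mM PBS, pH 7.4, plus 0.02% sodium azide, was mixed with compound solutions (0.5–1000 μg/mL in DMSO) and held 14 d at 37 °C. AGE fluorescence was read at ex 350/em 420 nm in triplicate. Inhibition was corrected with glucose-free blanks, and IC50 calculated.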"}, "[4]": {"system": "STZ-diabetic mice", "assay": "Acute hypoglycemic assay in STZ-diabetic mice", "type": "in vivo", "conditions": "STZ-diabetics mice", "summary_of_the_method": "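Mice made diabetic by single i.p. STZ 110 mg/kg in citrate buffer pH 4.5; blood glucose >11 mM after 7 days required. After 12 h fast, compounds at 10, 30, 100 mg/kg given intragastrically in 0.05% Tween-80/saline; blood glucose read at 0, 1.5, 3, 5, 7, 9 h post-dose.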"}}, "data": [{"smiles": "Cc1ccccc1-c1cc2ccc(O)cc2oc1=O", "note": "[Compound 11, 7-Hydroxy-3-(2-methylphenyl)-coumarin]", "values": [{"measurement": "IC50", "setting": "[1]", "value": "564.2 ± 5.2", "unit": "µM"}, {"measurement": "α-glucosidase inhibitory activity (in words)", "setting": "[2]; in vitro", "value": "moderate to excellent inhibitory activity"}, {"measurement": "IC50", "setting": "[2]; mean ± SD (n = 3), read-out: α-Glucosidase inhibitory activity IC50 Value", "value": "16.4 ± 1.23", "unit": "µM"}, {"measurement": "IC50", "setting": "[3]", "value": "> 1000", "unit": "µM"}, {"measurement": "Blood glucose concentration", "setting": "[4]; 10 mg/kg of bw per os, 0h", "value": "24.9 ± 4.1", "unit": "mM"}, {"measurement": "% Variation of glycemia", "setting": "[4]; 10 mg/kg of bw per os, 1.5h", "value": "(−17.27) %"}, {"measurement": "Blood glucose concentration", "setting": "[4]; 10 mg/kg of bw per os, 1.5h", "value": "20.6 ± 5.9", "unit": "mM"}, {"measurement": "% Variation of glycemia", "setting": "[4]; 10 mg/kg of bw per os, 3h", "value": "(−37.75) %"}, {"measurement": "Blood glucose concentration", "setting": "[4]; 10 mg/kg of bw per os, 3h", "value": "15.5 ± 8.5", "unit": "mM"}, {"measurement": "% Variation of glycemia", "setting": "[4]; 10 mg/kg of bw per os, 5h", "value": "(−48.59) %"}, {"measurement": "Blood glucose concentration", "setting": "[4]; 10 mg/kg of bw per os, 5h", "value": "12.8 ± 10.4", "unit": "mM"}, {"measurement": "% Variation of glycemia", "setting": "[4]; 10 mg/kg of bw per os, 7h", "value": "(−54.22) %"}, {"measurement": "Blood glucose concentration", "setting": "[4]; 10 mg/kg of bw per os, 7h", "value": "11.4 ± 8.2", "unit": "mM"}, {"measurement": "% Variation of glycemia", "setting": "[4]; 10 mg/kg of bw per os, 9h", "value": "(−52.21) %"}, {"measurement": "Blood glucose concentration", "setting": "[4]; 10 mg/kg of bw per os, 9h", "value": "11.9 ± 8.5", "unit": "mM"}, {"measurement": "Blood glucose concentration", "setting": "[4]; 30 mg/kg of bw per os, 0h", "value": "25.3 ± 6.3", "unit": "mM"}, {"measurement": "% Variation of glycemia", "setting": "[4]; 30 mg/kg of bw per os, 1.5h", "value": "(−20.95) %"}, {"measurement": "Blood glucose concentration", "setting": "[4]; 30 mg/kg of bw per os, 1.5h", "value": "20.0 ± 6.3", "unit": "mM"}, {"measurement": "% Variation of glycemia", "setting": "[4]; 30 mg/kg of bw per os, 3h", "value": "(−34.78) %"}, {"measurement": "Blood glucose concentration", "setting": "[4]; 30 mg/kg of bw per os, 3h", "value": "16.5 ± 6.4", "unit": "mM"}, {"measurement": "% Variation of glycemia", "setting": "[4]; 30 mg/kg of bw per os, 5h", "value": "(−55.41) %"}, {"measurement": "Blood glucose concentration", "setting": "[4]; 30 mg/kg of bw per os, 5h", "value": "11.3 ± 4.0", "unit": "mM"}, {"measurement": "% Variation of glycemia", "setting": "[4]; 30 mg/kg of bw per os, 7h", "value": "(−62.40) %"}, {"measurement": "Blood glucose concentration", "setting": "[4]; 30 mg/kg of bw per os, 7h", "value": "9.5 ± 3.9", "unit": "mM"}, {"measurement": "% Variation of glycemia", "setting": "[4]; 30 mg/kg of bw per os, 9h", "value": "(−68.14) %"}, {"measurement": "Blood glucose concentration", "setting": "[4]; 30 mg/kg of bw per os, 9h", "value": "8.1 ± 4.2", "unit": "mM"}, {"measurement": "Blood glucose concentration", "setting": "[4]; 100 mg/kg of bw per os, 0h", "value": "23.5 ± 5.4", "unit": "mM"}, {"measurement": "% Variation of glycemia", "setting": "[4]; 100 mg/kg of bw per os, 1.5h", "value": "(−21.88) %"}, {"measurement": "Blood glucose concentration", "setting": "[4]; 100 mg/kg of bw per os, 1.5h", "value": "18.3 ± 3.9", "unit": "mM"}, {"measurement": "% Variation of glycemia", "setting": "[4]; 100 mg/kg of bw per os, 3h", "value": "(−34.89) %"}, {"measurement": "Blood glucose concentration", "setting": "[4]; 100 mg/kg of bw per os, 3h", "value": "15.3 ± 3.9", "unit": "mM"}, {"measurement": "% Variation of glycemia", "setting": "[4]; 100 mg/kg of bw per os, 5h", "value": "(−52.76) %"}, {"measurement": "Blood glucose concentration", "setting": "[4]; 100 mg/kg of bw per os, 5h", "value": "11.1 ± 4.4", "unit": "mM"}, {"measurement": "% Variation of glycemia", "setting": "[4]; 100 mg/kg of bw per os, 7h", "value": "(−62.21) %"}, {"measurement": "Blood glucose concentration", "setting": "[4]; 100 mg/kg of bw per os, 7h", "value": "8.9 ± 2.8", "unit": "mM"}, {"measurement": "% Variation of glycemia", "setting": "[4]; 100 mg/kg of bw per os, 9h", "value": "(−65.27) %"}, {"measurement": "Blood glucose concentration", "setting": "[4]; 100 mg/kg of bw per os, 9h", "value": "8.2 ± 2.6", "unit": "mM"}]}]}
